# Measurements published in PMC11369174, “Proteome-scale characterisation of motif-based interactome rewiring by disease mutations” (Molecular Systems Biology, 2024).
# Where a SMILES comes first, the peptide text is derived from it. The star is where a group is joined. FITC = O=C1OC2(c3ccc(O)cc3Oc3cc(O)ccc32)c2ccc(NC(=S)*)cc21
# Assays:
# ABL1 SH3 = ABL1 SH3 (Homo sapiens, UniProt P00519); experiment: FP saturation binding, ABL1 SH3; conditions: domain titrated to 10 nM FITC-peptide, 50 mM sodium phosphate pH 7.4, 0.05% Tween, quadratic fit, technical triplets, read-out: KD [µM] + SE
# GGA1 VHS [1] = target: T1, GGA1 VHS (Homo sapiens, UniProt Q9UJY5); experiment: GenVar_HD2 ProP-PD phage selection, GGA1 VHS; conditions: bait GGA1 VHS; from NGS counts of overlapping wild-type/mutant library peptide pairs; positive = mutation enhances, negative = disrupts binding
# T1 sequence (Q9UJY5 1-157): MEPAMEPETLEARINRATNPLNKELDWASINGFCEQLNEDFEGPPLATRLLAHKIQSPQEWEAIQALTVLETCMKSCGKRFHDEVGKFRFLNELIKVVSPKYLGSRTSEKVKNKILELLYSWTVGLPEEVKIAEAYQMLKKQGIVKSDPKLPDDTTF
# Description: (§1) Phage display screens were performed according to previous reports (Benz et al, [2022]; Ali et al, [2020]) and for four consecutive selection rounds with five to six replicates per bait protein domain against the […] library.
# (§2) On the first day, both bait (15 µg in 100 µL PBS) and control protein domains (GST and MBP; 10 µg in 100 µL PBS) were immobilised on a 96-well MaxiSorb plate (Nunc) overnight in the cold room while shaking. Additionally, a 10 mL culture of Omnimax E. coli bacteria supplemented with 10 µg/mL tetracycline was incubated overnight at 37 °C at 200 rpm.
# (§3) First, protein solutions were removed from both control and bait protein domain plates and the wells were blocked with 0.5% BSA in PBS (200 µL/well) for 1 h in the cold room while shaking. After that, three Omnimax E. coli cultures were started supplemented with either 30 µg/mL kanamycin, 100 µg/mL carbenicillin and 10 µg/mL tetracycline and incubated at 37 °C and 200 rpm. The two first cultures served as a means to check for helper phage contamination (kanamycin) and phages with library phagemid contamination (carbenicillin) of the culture used for elution of the phages during selections. The tetracycline Omnimax E. coli culture was grown until OD at 600 nm reached 0.6–0.8. […]
# USP7 MATH/TRAF [2] = target: T2, USP7 MATH/TRAF (Homo sapiens, UniProt Q93009); experiment: GenVar_HD2 ProP-PD phage selection, USP7 MATH/TRAF; conditions: bait USP7 MATH/TRAF; from NGS counts of overlapping wild-type/mutant library peptide pairs; positive = mutation enhances, negative = disrupts binding
# Description: as §1, §2, §3
# USP7 MATH/TRAF [3] = target: T2, USP7 MATH/TRAF; experiment: FP displacement assay, USP7 MATH/TRAF; format: binding; conditions: read-out: KD-values [µM] + SEM
# Description: (§4) FP experiments were performed, as previously described (Kliche et al, [2021], [2023]), on an iD5 plate reader (Molecular devices) using black half-area non-binding 96-well plates (Corning). In order to calculate the FP signal in millipolarisation (mP), the FITC-labelled peptides were excited at 485 nm and the emitted light was measured at 535 nm in two different angles. For saturation experiments, a dilution series of the respective protein domains was generated (25 µL) and 10 nM fluorescein isothiocyanate (FITC)-labelled peptide (diluted in 50 mM sodium phosphate buffer pH 7.4, 0.05% Tween) were added in an end volume of 50 µL. […] For fitting the data, the buffer-corrected reduced values were plotted in GraphPad PRISM against the respective protein concentration and the KD-values were obtained by fitting against the quadratic equation (Gianni et al, [2005]).
# (§5) The buffer-corrected reduced values were subsequently plotted against the logarithmic unlabelled peptide concentration to derive the IC50 values by using the sigmoidal dose-response (x is logarithmic) fit in GraphPad PRISM and calculate the KD values as described previously (Nikolovska-Coleska et al, [2004]).
# CREBBP KIX = CREBBP KIX (Homo sapiens, UniProt Q92793); experiment: FP saturation binding, CREBBP KIX; conditions: domain titrated to 10 nM FITC-peptide, 50 mM sodium phosphate pH 7.4, 0.05% Tween, quadratic fit, technical triplets, read-out: KD [µM] + SE
# NEDD4 WW2 = NEDD4 WW2 (Homo sapiens, UniProt P46934); experiment: FP saturation binding, NEDD4 WW2; conditions: GST-tagged construct, domain titrated to 10 nM FITC-peptide, 50 mM sodium phosphate pH 7.4, 0.05% Tween, quadratic fit, technical triplets, read-out: KD [µM] + SE
# Description: In order to calculate the FP signal in millipolarisation (mP), the FITC-labelled peptides were excited at 485 nm and the emitted light was measured at 535 nm in two different angles. For saturation experiments, a dilution series of the respective protein domains was generated (25 µL) and 10 nM fluorescein isothiocyanate (FITC)-labelled peptide (diluted in 50 mM sodium phosphate buffer pH 7.4, 0.05% Tween) were added in an end volume of 50 µL. A control experiment titrating GST was performed for the binding of the NEDD4 WW2 domain, since the GST-tagged construct was used for affinity measurements. For fitting the data, the buffer-corrected reduced values were plotted in GraphPad PRISM against the respective protein concentration and the KD-values were obtained by fitting against the quadratic equation (Gianni et al, [2005]).
# USP7 MATH/TRAF [4] = target: T2, USP7 MATH/TRAF; experiment: FP saturation binding, USP7 MATH/TRAF; conditions: domain titrated to 10 nM FITC-peptide, 50 mM sodium phosphate pH 7.4, 0.05% Tween, quadratic fit, technical triplets, read-out: KD [µM] + SE
# MAP1LC3A ATG8 [5] = target: T3, MAP1LC3A ATG8 (Homo sapiens, UniProt Q9H492); experiment: FP displacement assay, MAP1LC3A ATG8; format: binding; conditions: read-out: KD-values [µM] + SEM
# Description: as §4, §5
# GABARAPL1 ATG8 = GABARAPL1 ATG8 (Homo sapiens, UniProt Q9H0R8); experiment: FP saturation binding, GABARAPL1 ATG8; conditions: domain titrated to 10 nM FITC-peptide, 50 mM sodium phosphate pH 7.4, 0.05% Tween, quadratic fit, technical triplets, read-out: KD [µM] + SE
# GGA1 VHS [6] = target: T1, GGA1 VHS; experiment: FP saturation binding, GGA1 VHS; conditions: domain titrated to 10 nM FITC-peptide, 50 mM sodium phosphate pH 7.4, 0.05% Tween, quadratic fit, technical triplets, read-out: KD [µM] + SE
# MAP1LC3A ATG8 [7] = target: T3, MAP1LC3A ATG8; experiment: GenVar_HD2 ProP-PD phage selection, MAP1LC3A ATG8; conditions: bait MAP1LC3A ATG8; from NGS counts of overlapping wild-type/mutant library peptide pairs; positive = mutation enhances, negative = disrupts binding
# Description: as §1, §2, §3
# T2 sequence (Q93009 53-206): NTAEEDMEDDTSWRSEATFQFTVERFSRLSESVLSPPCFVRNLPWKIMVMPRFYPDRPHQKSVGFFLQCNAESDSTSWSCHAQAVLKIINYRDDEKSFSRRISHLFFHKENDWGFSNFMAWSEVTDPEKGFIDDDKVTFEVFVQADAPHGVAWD
# CREBBP KIX, sequence (Q92793 587-673): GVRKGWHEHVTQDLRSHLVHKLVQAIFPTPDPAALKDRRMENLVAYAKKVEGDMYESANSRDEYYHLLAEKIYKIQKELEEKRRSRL
# NEDD4 WW2, sequence (P46934 765-803 limits assumed): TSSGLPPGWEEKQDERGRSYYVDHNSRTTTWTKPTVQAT
# GABARAPL1 ATG8, sequence (Q9H0R8 2-115): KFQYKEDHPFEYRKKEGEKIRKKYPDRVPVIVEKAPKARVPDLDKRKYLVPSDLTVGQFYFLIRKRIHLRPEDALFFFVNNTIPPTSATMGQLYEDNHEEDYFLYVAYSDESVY
# ABL1 SH3, sequence (P00519 60-121): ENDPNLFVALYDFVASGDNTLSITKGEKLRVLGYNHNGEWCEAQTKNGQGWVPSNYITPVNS
compound,measurement,setting,value
CC(C)[C@H](NC(=O)[C@@H]1CCCN1C(=O)[C@@H]1CCCN1C(=O)[C@@H]1CCCN1C(=O)[C@@H]1CCCN1C(=O)[C@H](Cc1ccc(O)cc1)NC(=O)[C@H](C)NC(=O)[C@@H]1CCCN1C(=O)[C@@H]1CCCN1C(=O)[C@H](Cc1c[nH]cn1)NC(=S)Nc1ccc2c(c1)C(=O)OC21c2ccc(O)cc2Oc2cc(O)ccc21)C(=O)N1CCC[C@H]1C(=O)N[C@H](C(N)=O)[C@@H](C)O [FITC-3BP2] ({FITC}-HPPAYPPPPVPT-NH2),Kd,ABL1 SH3,3.7 ± 0.4 µM
Ac-YQQELDHLLVDLDHQR-NH2 [MYH9_1419-1433 D1424H],Mutation enrichment score,GGA1 VHS [1],−10
Ac-YISSSSTSTMPNSSKSS-NH2 [CHK2_38-53 Q51K],Mutation enrichment score,USP7 MATH/TRAF [2],−6
same,Kd,USP7 MATH/TRAF [3],4.7 ± 0.3 µM
CC(C)C[C@H](NC(=O)[C@H](CC(C)C)NC(=O)[C@H](CC(=O)O)NC(=O)[C@H](CO)NC(=O)[C@H](CC(C)C)NC(=O)[C@H](CCC(=O)O)NC(=O)[C@H](CCCCN)NC(=O)[C@H](CC(=O)O)NC(=S)Nc1ccc2c(c1)C(=O)OC21c2ccc(O)cc2Oc2cc(O)ccc21)C(=O)N[C@@H](CC(=O)O)C(=O)N[C@@H](Cc1ccccc1)C(=O)N[C@@H](CO)C(N)=O [FITC-TCF3] ({FITC}-DKELSDLLDFS-NH2),Kd,CREBBP KIX,35 ± 4 µM
C[C@H](NC(=O)[C@H](CO)NC(=O)[C@H](Cc1ccc(O)cc1)NC(=O)[C@@H]1CCCN1C(=O)[C@@H]1CCCN1C(=O)[C@@H]1CCCN1C(=O)[C@H](CO)NC(=O)[C@H](CC(=O)O)NC(=O)[C@@H](NC(=S)Nc1ccc2c(c1)C(=O)OC21c2ccc(O)cc2Oc2cc(O)ccc21)[C@@H](C)O)C(=O)NCC(=O)O [FITC-UL56(HHV-2)] ({FITC}-TDSPPPYSAG-OH),Kd,NEDD4 WW2,4.1 ± 0.3 µM
CC[C@H](C)[C@H](NC(=O)[C@H](CO)NC(=O)[C@H](CO)NC(=O)[C@H](CO)NC(=O)[C@@H](NC(=O)[C@H](CO)NC(=O)[C@@H]1CCCN1C(=O)[C@H](CCC(N)=O)NC(=O)[C@H](CO)NC(=O)[C@H](Cc1ccc(O)cc1)NC(=O)[C@H](CC(=O)O)NC(=S)Nc1ccc2c(c1)C(=O)OC21c2ccc(O)cc2Oc2cc(O)ccc21)[C@@H](C)O)C(=O)N[C@H](C(=O)N[C@@H](Cc1ccc(O)cc1)C(=O)O)[C@@H](C)CC [FITC-MDM2] ({FITC}-DYSQPSTSSSIIY-OH),Kd,USP7 MATH/TRAF [4],0.5 ± 0.03 µM
Ac-QTKWELLQQVDTSTRT-NH2 [KRT1_209-224 wild-type],Kd,MAP1LC3A ATG8 [5],55 ± 5 µM
CC(C)C[C@H](NC(=O)[C@H](Cc1c[nH]cn1)NC(=O)[C@@H](NC(=O)[C@H](Cc1c[nH]c2ccccc12)NC(=O)[C@H](CC(=O)O)NC(=O)[C@H](CC(=O)O)NC(=O)[C@H](CC(=O)O)NC(=S)Nc1ccc2c(c1)C(=O)OC21c2ccc(O)cc2Oc2cc(O)ccc21)[C@@H](C)O)C(=O)N[C@@H](CO)C(=O)N[C@@H](CO)C(=O)N[C@@H](CCCCN)C(N)=O [FITC-SQSTM1],Kd,GABARAPL1 ATG8,3.7 ± 0.4 µM
CC[C@H](C)[C@H](NC(=O)[C@H](CC(=O)O)NC(=O)[C@H](CC(C)C)NC(=O)[C@H](CC(C)C)NC(=O)[C@H](CC(=O)O)NC(=O)[C@H](CCC(=O)O)NC(=O)[C@H](CC(=O)O)NC(=O)[C@H](CCC(=O)O)NC(=O)[C@H](CC(=O)O)NC(=S)Nc1ccc2c(c1)C(=O)OC21c2ccc(O)cc2Oc2cc(O)ccc21)C(=O)N[C@@H](CCC(=O)O)C(=O)N[C@@H](CC(=O)O)C(N)=O [FITC-STK11_mut] ({FITC}-DEDEDLLDIED-NH2),Kd,GGA1 VHS [6],14.1 ± 0.7 µM
Ac-QTKWEPLQQVDTSTRT-NH2 [KRT1_209-224 L214P],Mutation enrichment score,MAP1LC3A ATG8 [7],−6
